Measurements reported in patent publication US20100098631A1, “Novel-2-Heteroaryl Substituted Indoles 695” (ASTRAZENECA AB, priority 2007, published 2010).
pIC50: −log10 of the molar value.

Molecular target: T1, synthetic Aβ 1-40 (Homo sapiens, UniProt P05067)
T1 construct: using synthetic Aβ 1-40 in 2.7 nM of [^3H]PIB
Assay: Competition binding assay ([3H]PIB as radioligand)
Conditions: [3H]PIB 2.7 nM as radioligand, synthetic Aβ 1-40, phosphate buffer pH 7.5, 30 min room temperature; read-out: IC50 in the competion binding assay
Method: Competition binding was performed in 384-well FB filter plates using synthetic Aβ 1-40 in 2.7 nM of [^3H]PIB (or another ^3H-labeled radioligand when so mentioned) in phosphate buffer at pH 7.5, by adding various concentrations of non-radioactive compounds originally dissolved in DMSO. The binding mixture was incubated for 30 min at room temperature, followed by vacuum filtration, and subsequently by washing twice with 1% Triton-X100. Scintillation fluid was thereafter added to the collected Aβ 1-40 on the filter plate, and the activity of the bound remaining radioligand ([^3H]PIB or another ^3H-labeled radioligand) was measured using 1450 Microbeta from PerkinElmer. Specific binding was determined according to the competion binding assay described herein. The determined IC50's in the competion binding assays (using [^3H]PIB as radioligand) of compounds of the present invention are shown in Table 1.

T1 sequence (P05067 672-711 limits assumed): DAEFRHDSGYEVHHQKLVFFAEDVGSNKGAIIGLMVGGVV

Compared with `CNc1ccc(-c2cc3cc(O)ccc3[nH]2)cn1` [2-[6-(Methylamino)pyridin-3-yl]-1H-indol-5-ol], `CNc1ccc(-c2cc3cc(F)ccc3[nH]2)cn1` [5-(5-Fluoro-1H-indol-2-yl)—N-methylpyridin-2-amine] is 0.69 log units higher in pIC50: 6.13 for the first, 6.82 for the second.

`NC(=O)c1ccc(-c2cc3ccccc3[nH]2)cn1` [5-(1H-indol-2-yl)pyridine-2-carboxamide, 5-(1H-Indol-2-yl)pyridine-2-carboxamide] and `CNc1ccc(-c2cc3cc(OC)ccc3[nH]2)cn1` [5-(5-Methoxy-1H-indol-2-yl)—N-methylpyridin-2-amine] are within 0.2 log units of each other in pIC50: 6.84 for the first, 6.70 for the second.

`COC(=O)c1ccc(-c2cc3cc(O)ccc3[nH]2)nc1` [6-(5-Hydroxy-1H-indol-2-yl)-Nicotinic Acid Methyl Ester] and `COC(=O)c1ccc(-c2cc3cc(OC)ccc3[nH]2)nc1` [Methyl 6-(5-methoxy-1H-indol-2-yl)-nicotinate] are the same in pIC50: 6.85 for the first, 6.85 for the second.

With `CC(C)(C)OC(=O)n1c(-c2ccc(C(N)=O)nc2)cc2cc(F)ccc21` [tert-Butyl 2-(6-carbamoylpyridin-3-yl)-5-fluoro-1H-indole-1-carboxylate] the pIC50 was 5.27.
